Experimental data taken from patent US20260097037A1, “FUSED RING COMPOUND HAVING GLP-1 RECEPTOR AGONIST EFFECT” (Shionogi & Co., Ltd., priority 2022, published 2026).

Target: T1, Human GLP-1 receptor stably expressing cells (hGLP-1R/CHO-K1 cells) (Homo sapiens, UniProt P43220)
T1 construct: expressed in transfected cells
Assay: Measurement of GLP-1 receptor agonist activity (cAMP assay)
Format: cell-based
Details: for Emax: CHO-K1, maximum effect, cAMP with 2 nM human GLP-1 (7-36) = 100%, DMSO only = 0%, read-out: Emax; for EC50: increase in cAMP concentration in hGLP-1R/CHO-K1 cells, 37° C. 1 hour
Procedure, shortened: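 hGLP-1R/CHO-K1 cells (cryopreserved) incubated with compound and forskolin in HBSS with 0.1% BSA, IBMX and RO20-1724, 1 h at 37° C; cAMP read by HTRF. EC50 and Emax from cAMP rise, normalised to 2 nM human GLP-1 (7-36) (100%) and DMSO (0%).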

T1 sequence (P43220 24-463): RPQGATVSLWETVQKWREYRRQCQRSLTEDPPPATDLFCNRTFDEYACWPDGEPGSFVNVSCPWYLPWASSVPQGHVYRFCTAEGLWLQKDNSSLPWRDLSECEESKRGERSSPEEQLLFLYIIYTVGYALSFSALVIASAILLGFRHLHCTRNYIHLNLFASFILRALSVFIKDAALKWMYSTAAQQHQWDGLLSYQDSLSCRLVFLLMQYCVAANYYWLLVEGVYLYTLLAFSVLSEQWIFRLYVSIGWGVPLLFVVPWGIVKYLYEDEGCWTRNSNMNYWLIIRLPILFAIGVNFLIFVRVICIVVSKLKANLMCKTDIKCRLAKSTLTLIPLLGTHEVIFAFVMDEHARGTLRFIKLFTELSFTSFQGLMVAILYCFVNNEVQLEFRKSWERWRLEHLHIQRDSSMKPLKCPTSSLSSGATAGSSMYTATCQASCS

Row | Emax [%] | EC50 [nM] | SMILES
1 | 122 | 0.0591 | COc1cc(C(=O)O)cc2c1nc(CN1CCc3cc(C(F)F)c(OCc4ccc(Cl)cn4)nc3[C@@H]1C)n2C[C@@H]1CCO1 [Compound I-133]
2 | 99.7 | 12.4 | C[C@H]1c2nc(OCc3ccc(Cl)cc3F)c(C(F)(F)F)cc2CCN1Cc1nc2c(-c3cnn(C)c3)cc(C(=O)O)cc2n1C[C@@H]1CCO1 [Compound I-178]
3 | 118 | 0.073 | C[C@H]1c2nc(OCc3ccc(Cl)cc3F)c(C#N)cc2CCN1Cc1nc2c(Cl)cc(C(=O)O)cc2n1C[C@@H]1CCO1 [Compound I-184]
4 | 105 | 0.0391 | COc1cc(C(=O)O)cc2c1nc(CN1CCc3cc(C(F)(F)F)c(NCc4ccc(Cl)cc4F)nc3[C@@H]1C)n2C[C@@H]1CCO1 [Compound I-150]
5 | 99.3 | 0.215 | C[C@H]1c2nc(OCc3cc(F)c(Cl)cc3F)c(C(F)F)cc2CCN1Cc1nc2ccc(C(=O)O)cc2n1C[C@@H]1CCO1 [Compound I-062]
6 | 111 | 0.106 | C[C@H]1c2nc(OCc3c(F)cc(C#N)cc3F)c(C(F)(F)F)cc2CCN1Cc1nc2ccc(C(=O)O)cc2n1C[C@@H]1CCO1 [Compound I-107]
7 | 104 | 0.0809 | COc1cc(C(=O)O)cc2c1nc(CN1CCc3cc(Cl)c(OCc4ccc(Cl)cn4)nc3[C@@H]1C)n2C[C@@H]1CCO1 [Compound I-065]
8 | 101 | 7.04 | C[C@H]1c2nc(OCc3cc(Cl)n(C)n3)c(C(F)(F)F)cc2CCN1Cc1nc2ccc(C(=O)O)cc2n1C[C@@H]1CCO1 [Compound I-154]
9 | 124 | 0.176 | C[C@H]1c2nc(OCc3ccc(F)cc3F)c(Cl)cc2CCN1Cc1nc2ccc(C(=O)O)cc2n1C[C@@H]1CCO1 [Compound I-019]
10 | 128 | 0.119 | C[C@H]1c2nc(OCc3ccc(Cl)cc3F)c(C#N)cc2CCN1Cc1nc2c(F)cc(C(=O)O)cc2n1C[C@@H]1CCO1 [Compound I-138]
11 | 107 | 0.0831 | C[C@H]1c2nc(NCc3cc(F)c(Cl)cc3F)c(C(F)(F)F)cc2CCN1Cc1nc2c(F)cc(C(=O)O)cc2n1C[C@@H]1CCO1 [Compound I-175]
12 | 115 | 0.252 | C[C@H]1c2nc(OCc3ccc(Cl)cc3)c(C(F)F)cc2CCN1Cc1nc2ccc(C(=O)O)cc2n1C[C@@H]1CCO1 [Compound I-052]
13 | 113 | 0.432 | C[C@H]1c2nc(OCc3ccccc3Cl)c(Cl)cc2CCN1Cc1nc2ccc(C(=O)O)c(F)c2n1C[C@@H]1CCO1 [Compound I-036]
14 | 124 | 0.0152 | COc1cc(C(=O)O)cc2c1nc(CN1CCc3cc(C(F)(F)F)c(NCc4c(F)cc(Cl)cc4F)nc3[C@@H]1C)n2C[C@@H]1CCO1 [Compound I-171]
15 | 126 | 0.109 | C[C@H]1c2cc(OCc3c(F)cc(F)cc3F)c(Cl)cc2CCN1Cc1nc2ccc(C(=O)O)c(F)c2n1C[C@@H]1CCO1 [Compound I-044]
16 | 123 | 0.37 | C[C@H]1c2nc(OCc3ccc(Cl)cc3Cl)c(Cl)cc2CCN1Cc1nc2ccc(C(=O)O)nc2n1C[C@@H]1CCO1 [Compound I-030]
17 | 73 | 28.2 | Cc1nonc1COc1nc2c(cc1C(F)(F)F)CCN(Cc1nc3ccc(C(=O)O)cc3n1C[C@@H]1CCO1)[C@H]2C [Compound I-161]
18 | 103 | 0.256 | C[C@H]1c2nc(NCc3ccc(Cl)cc3F)c(C(F)(F)F)cc2CCN1Cc1nc2ccc(C(=O)O)cc2n1C[C@@H]1CCO1 [Compound I-094]
19 | 109 | 0.168 | Cc1cc2c(nc1OCc1ccc(Cl)cc1F)[C@H](C)N(Cc1nc3ccc(C(=O)O)cc3n1C[C@@H]1CCO1)CC2 [Compound I-002]
20 | 112 | 0.125 | C[C@H]1c2nc(OCc3ccc(C#N)cc3F)c(Cl)cc2CCN1Cc1nc2ccc(C(=O)O)cc2n1C[C@@H]1CCO1 [Compound I-022]
21 | 99.7 | 0.0889 | C[C@H]1c2nc(NCc3c(F)cc(Cl)cc3F)c(C(F)(F)F)cc2CCN1Cc1nc2c(F)cc(C(=O)O)cc2n1C[C@@H]1CCO1 [Compound I-173]
